Earlier results, collected in patent US20240366636A1, “ORAL CANNABINOID PHARMACEUTICAL COMPOSITIONS AND METHODS OF TREATING INFLAMMATORY GASTROINTESTINAL DISORDERS” (Curio IP, LLC, priority 2022, published 2024).

Key:
[1] = tested on: DNBS-induced intestinal inflammation; settings: murine
cannabinoid CB2 receptor = cannabinoid CB2 receptor (Homo sapiens, UniProt P34972)
[2] = humans

Chain of cannabinoid CB2 receptor (P34972 whole entry): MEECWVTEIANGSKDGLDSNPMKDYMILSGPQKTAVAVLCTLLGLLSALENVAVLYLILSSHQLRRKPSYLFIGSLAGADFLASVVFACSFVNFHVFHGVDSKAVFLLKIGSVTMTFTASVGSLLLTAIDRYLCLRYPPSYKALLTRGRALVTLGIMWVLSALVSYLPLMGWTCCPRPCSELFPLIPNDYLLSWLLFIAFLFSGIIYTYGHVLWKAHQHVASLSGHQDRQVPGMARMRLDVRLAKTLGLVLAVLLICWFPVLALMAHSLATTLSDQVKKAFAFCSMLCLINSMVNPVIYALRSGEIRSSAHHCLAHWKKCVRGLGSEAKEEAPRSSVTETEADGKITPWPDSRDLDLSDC

Compound: Cannabigerol [CBG]
- DNBS-induced intestinal inflammation and permeability [1]: attenuated
- Interleuken-1β (IL-1β) levels ([1]; DNBS): reduced
- myeloperoxidase (MPO) activity ([1]; DNBS): reduced

Compound: C=C(C)[C@@H]1CCC(C)=C[C@H]1c1c(O)cc(CCCCC)cc1O [CBD, cannabidiol]
- affinity for CB2 receptor (cannabinoid CB2 receptor): low affinity
- oral bioavailability [2]: approximately 6%

Compound: CCCCCc1cc(O)c2c(c1)OC(C)(C)[C@@H]1CCC(C)=C[C@@H]21 [THC, (−)-(6aR,10aR)-6,6,9-trimethyl-3-pentyl-6a,7,8,10a-tetrahydro-6H-benzo[c]chromen-1-ol]
- peak plasma levels (following smoking of the equivalent of 10-15 mg over 5-7 minutes): around 100 μg/L
- half-life (plasma, when cannabis is smoked): 2 h
- Bioavailability (smoking route): 2-56%
